According to PubChem BioAssay AID1963958 (Molecular Pharmacology Branch, DTP, NCI, 2024):

Tested on: MDA-MB-231 multicell spheroids, viability
Experiment: Anticancer human tumor MDA-MB-231 cell line growth inhibition [PI3K];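 further: spheroids exposed to agents for seven days before reading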;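 on viability, T/C: percent of vehicle control luminescence with DMSO treated spheroids as 100%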
Conditions: for IC50: curve of first compound; for viability, T/C: stronger effect = lower value
Description: Combinatorial screen of targeted agents with the PI3K inhibitors inavolisib, alpelisib, duvelisib, and copanlisib in multi-cell type tumor spheroids
A high-throughput screen of multi-cell type tumor spheroids was designed to identify active combinations of targeted small molecules and PI3K pathway inhibitors. Complex spheroids include a stromal component modeled by human endothelial cells (HUVEC) and fibroblasts modeled by human mesenchymal stem cells (MSCs). The concentration ranges selected for each drug and investigational agent were based upon clinically achievable concentrations if the clinical Cmax of the agent was known.
Compounds. The drugs and investigational agents: inavolisib (NSC800729), alpelisib (NSC765974), duvelisib (NSC772469), copanlisib (NSC816437), ipatasertib (NSC767898), afuresertib (NSC778305), talazoparib (NSC767125), sapanisertib (NSC764658), selumetinib (NSC741078), tovorafenib (DAY101, NSC766906), vemurafenib (NSC761431), ravoxertinib (NSC781343), sotorasib (NSC818433), MRTX1133 (NSC 836407), abemaciclib (NSC 768073), palbociclib (NSC758247), venetoclax (NSC 766270), SY5609 (NSC837396), enzalutamide (NSC755605), and darolutamide (NSC825331), were obtained from the National Cancer Institute (NCI) Developmental Therapeutics Program Chemical Repository. The FDA-approved anticancer drug set is available from the NCI Developmental Therapeutics Program. […] The stock solutions were prepared in dimethyl sulfoxide (DMSO, Sigma-Aldrich, St. Louis, MO, cat. D2650) at 800-fold the tested concentration and stored at -70 degrees C prior to their use. All drugs and investigational agents were tested over a range starting from a high concentration at or near the clinical Cmax and decreasing in half-log increments. If the clinical Cmax for an agent had not been determined, the highest concentration tested was 10 microM.
Cell Culture. All cells were maintained in an incubator at 37 degrees C and 5% CO2 with 95% humidity. The PDC lines were cultured according to standard operating procedures established by the NCI PDMR (https://pdmr.cancer.gov/sops/default.htm). All PDCs were thawed and cultured in Matrigel-coated flasks prepared with a working solution of 1X Ham's F-12 nutrient mix, without supplementation (Invitrogen, Waltham, MA, cat. 11765054), 100 U/mL penicillin-streptomycin (Invitrogen, cat. 15140122), and 2.5% Matrigel (Corning Inc., Corning, NY, cat. 354248) for the first three passages. The 354836-022-R-J1-PDC, 475296-252-R-J1-PDC, and 997726-040-R-J2-PDC lines were cultured in 6A media, which includes advanced DMEM/F-12 (Thermo Fisher Scientific, cat. 12634028), 10 mM HEPES (Thermo Fisher Scientific, cat. 15630080), 1X GlutaMAX supplement (Thermo Fisher Scientific, cat. 35050061), 0.1 mg/mL primocin (InvivoGen, San Diego, CA, cat. ant-pm-2), 10% defined fetal bovine serum, heat inactivated (HyClone Laboratories Inc., Logan, UT, cat. SH30070.03HI), 50% L-WRN conditioned media (ATCC, cat. CRL-3276), 1.25 mM N-Acetyl-L-cysteine (Sigma-Aldrich, cat. A9165), 10 mM nicotinamide (Sigma-Aldrich, cat. N0636), 1X B-27 supplement (Thermo Fisher Scientific, cat. 17504044), 1X N-2 supplement (Thermo Fisher Scientific, cat. 17502048), and 10 microM Y-27632 dihydrochloride (Tocris Bioscience, Bristol, United Kingdom, cat. 1254). The 624824-186-R-J2-PDC line was cultured in 6C/Colon 1B media, which includes all 6A media components plus 50 ng/mL human EGF recombinant protein (Thermo Fisher Scientific, cat. PHG0311). […]

C=CC(=O)N1CCN(c2nc(=O)n(-c3c(C)ccnc3C(C)C)c3nc(-c4c(O)cccc4F)c(F)cc23)C(C)C1 (configuration not stated) + CC(Nc1ccc2c(c1)OCCn1cc(N3C(=O)OCC3C(F)F)nc1-2)C(N)=O
IC50 (second compound 0.00316 µM): > 10 µM | IC50 (second compound 0.01 µM): > 10 µM | IC50 (second compound 0.0316 µM): > 10 µM | IC50 (second compound 0.1 µM): > 10 µM | IC50 (second compound 0.316 µM): > 10 µM | IC50 (second compound 1 µM): 8.26 µM | viability, T/C (second compound 0.00316 µM, first compound 0.0316 µM): 97.8% | viability, T/C (second compound 0.00316 µM, first compound 0.1 µM): 113% | viability, T/C (second compound 0.00316 µM, first compound 0.316 µM): 117% | viability, T/C (second compound 0.00316 µM, first compound 1 µM): 124% | viability, T/C (second compound 0.00316 µM, first compound 3.16 µM): 126% | viability, T/C (second compound 0.00316 µM, first compound 10 µM): 111% | viability, T/C (second compound 0.01 µM, first compound 0.0316 µM): 97.5% | viability, T/C (second compound 0.01 µM, first compound 0.1 µM): 99.1% | viability, T/C (second compound 0.01 µM, first compound 0.316 µM): 99.3% | viability, T/C (second compound 0.01 µM, first compound 1 µM): 119% | viability, T/C (second compound 0.01 µM, first compound 3.16 µM): 122% | viability, T/C (second compound 0.01 µM, first compound 10 µM): 106% | viability, T/C (second compound 0.0316 µM, first compound 0.0316 µM): 80.3% | viability, T/C (second compound 0.0316 µM, first compound 0.1 µM): 86.1% | viability, T/C (second compound 0.0316 µM, first compound 0.316 µM): 88.3% | viability, T/C (second compound 0.0316 µM, first compound 1 µM): 97.8% | viability, T/C (second compound 0.0316 µM, first compound 3.16 µM): 99.2% | viability, T/C (second compound 0.0316 µM, first compound 10 µM): 82.1% | viability, T/C (second compound 0.1 µM, first compound 0.0316 µM): 69.8% | viability, T/C (second compound 0.1 µM, first compound 0.1 µM): 71.2% | viability, T/C (second compound 0.1 µM, first compound 0.316 µM): 81.6% | viability, T/C (second compound 0.1 µM, first compound 1 µM): 73% | viability, T/C (second compound 0.1 µM, first compound 3.16 µM): 68.5% | viability, T/C (second compound 0.1 µM, first compound 10 µM): 59.3% | viability, T/C (second compound 0.316 µM, first compound 0.0316 µM): 68.7% | viability, T/C (second compound 0.316 µM, first compound 0.1 µM): 64.6% | viability, T/C (second compound 0.316 µM, first compound 0.316 µM): 67.8% | viability, T/C (second compound 0.316 µM, first compound 1 µM): 68.8% | viability, T/C (second compound 0.316 µM, first compound 3.16 µM): 62.1% | viability, T/C (second compound 0.316 µM, first compound 10 µM): 48% | viability, T/C (second compound 1 µM, first compound 0.0316 µM): 59.2% | viability, T/C (second compound 1 µM, first compound 0.1 µM): 57.7% | viability, T/C (second compound 1 µM, first compound 0.316 µM): 62.1% | viability, T/C (second compound 1 µM, first compound 1 µM): 60.6% | viability, T/C (second compound 1 µM, first compound 3.16 µM): 58.1% | viability, T/C (second compound 1 µM, first compound 10 µM): 40.3%
